Test results from patent US20250127843A1, “ADRENOCORTICOTROPIC HORMONE PEPTIDE COMPOSITIONS AND METHODS OF USE” (FERRING B.V., priority 2021, published 2025).
No end group written: not given here.

Assays:
[1] = Stability of the peptide in aqueous test formulations: change in impurity content by UPLC after storage; type: physicochemical; details: for Δ Total impurities (difference in % (w/w) of impurities from Day 0 to Day 14) / Δ impurity at retention time 1.293 min (difference in % (w/w) of impurities from Day 0 to Day 14) / Δ impurity at retention time 4.923 min (difference in % (w/w) of impurities from Day 0 to Day 14) / Δ impurity at retention time 5.821 min (difference in % (w/w) of impurities from Day 0 to Day 14) / Δ impurity at retention time 6.267 min (difference in % (w/w) of impurities from Day 0 to Day 14) / Δ impurity at retention time 7.268 min (difference in % (w/w) of impurities from Day 0 to Day 14) / Δ impurity at retention time 10.47 min (difference in % (w/w) of impurities from Day 0 to Day 14): UPLC
Procedure: The effect of methionine on the stability of the peptide in an aqueous composition was evaluated. Test formulations of the peptide (1 mg/ml) in aqueous acetate buffer at pH 5.5 were prepared with or without methionine (1 mg/ml).
The effect of pH on the stability of the peptide in an aqueous composition was evaluated. Test formulations of the peptide in water (1 mg/ml) were prepared at a pH of 4.5, 5.0 or 5.5 using an acetate buffer. […]

PCNA = details: cited from earlier work
[2] = system: nuclear membranes of nerve cells of the basal forebrain, hippocampus and cerebellum; details: cited from earlier work
[3] = system: cerebellar granule neurons; details: during glutamate neurotoxicity; cited from earlier work
[4] = system: membranes of the basal ganglia and cerebral cortex; details: cited from earlier work
BDNF and NGF genes = details: cited from earlier work
[5] = system: damaged cells under conditions of oxidative stress; details: oxidative stress caused by short-term incubation with hydrogen peroxide; cited from earlier work
Bcl-2 = details: cited from earlier work
[6] = peptide 1 mg/ml in water, acetate buffer pH 4.5, 14 days at 60° C.
[7] = peptide 1 mg/ml in water, acetate buffer pH 5.0, 14 days at 60° C.
[8] = peptide 1 mg/ml, aqueous acetate buffer pH 5.5, 14 days at 60° C.

MEHFPGP [Peptide, Met-Glu-His-Phe-Pro-Gly-Pro]
stability of the peptide as a function of pH ([1]; pH 4.5, 5.0 or 5.5 acetate buffer, 14 days at 60° C.): most stable at pH 4.5 | Δ Total impurities (difference in % (w/w) of impurities from Day 0 to Day 14) [1, 6]: 2.55 % (w/w) | Δ impurity at retention time 1.293 min (difference in % (w/w) of impurities from Day 0 to Day 14) [1, 6]: 0.3 % (w/w) | Δ impurity at retention time 4.923 min (difference in % (w/w) of impurities from Day 0 to Day 14) [1, 6]: 1.43 % (w/w) | Δ impurity at retention time 5.821 min (difference in % (w/w) of impurities from Day 0 to Day 14) [1, 6]: 0.28 % (w/w) | Δ impurity at retention time 6.267 min (difference in % (w/w) of impurities from Day 0 to Day 14) [1, 6]: 0 % (w/w) | Δ impurity at retention time 7.268 min (difference in % (w/w) of impurities from Day 0 to Day 14) [1, 6]: 0.28 % (w/w) | Δ impurity at retention time 10.47 min (difference in % (w/w) of impurities from Day 0 to Day 14) [1, 6]: 0.1 % (w/w) | Δ Total impurities (difference in % (w/w) of impurities from Day 0 to Day 14) [1, 7]: 4.07 % (w/w) | Δ impurity at retention time 1.293 min (difference in % (w/w) of impurities from Day 0 to Day 14) [1, 7]: 0.55 % (w/w) | Δ impurity at retention time 4.923 min (difference in % (w/w) of impurities from Day 0 to Day 14) [1, 7]: 2.58 % (w/w) | Δ impurity at retention time 5.821 min (difference in % (w/w) of impurities from Day 0 to Day 14) [1, 7]: 0.12 % (w/w) | Δ impurity at retention time 6.267 min (difference in % (w/w) of impurities from Day 0 to Day 14) [1, 7]: 0.11 % (w/w) | Δ impurity at retention time 7.268 min (difference in % (w/w) of impurities from Day 0 to Day 14) [1, 7]: 0.28 % (w/w) | Δ impurity at retention time 10.47 min (difference in % (w/w) of impurities from Day 0 to Day 14) [1, 7]: 0.24 % (w/w) | Δ Total impurities (difference in % (w/w) of impurities from Day 0 to Day 14) [1, 8]: 8.49 % (w/w) | Δ impurity at retention time 1.293 min (difference in % (w/w) of impurities from Day 0 to Day 14) [1, 8]: 1.19 % (w/w) | Δ impurity at retention time 4.923 min (difference in % (w/w) of impurities from Day 0 to Day 14) [1, 8]: 5.58 % (w/w) | Δ impurity at retention time 5.821 min (difference in % (w/w) of impurities from Day 0 to Day 14) [1, 8]: 0.1 % (w/w) | Δ impurity at retention time 6.267 min (difference in % (w/w) of impurities from Day 0 to Day 14) [1, 8]: 0.27 % (w/w) | Δ impurity at retention time 7.268 min (difference in % (w/w) of impurities from Day 0 to Day 14) [1, 8]: 0.31 % (w/w) | Δ impurity at retention time 10.47 min (difference in % (w/w) of impurities from Day 0 to Day 14) [1, 8]: 0.84 % (w/w) | expression of the nuclear protein PCNA (PCNA): significant increase in the expression | binding to nuclear membranes of nerve cells [2]: bind to the nuclear membranes of nerve cells of the basal forebrain, hippocampus and cerebellum | survival of cerebellar granule neurons [3]: significantly increase the survival | specific binding to membranes [4]: specifically bind to the membranes of the basal ganglia and cerebral cortex | transcription of the neurotrophin BDNF and NGF genes (BDNF and NGF genes): rapid induction of the transcription | number of damaged cells [5]: reduce the number of damaged cells | levels of Bcl-2 (Bcl-2): increase levels of Bcl-2
